One test concerns the target Human M3 receptor (Homo sapiens, UniProt P20309). To be noted: read-out: M3 binding affinity.
The target of the next test is Human β2 adrenoceptor (Homo sapiens, UniProt P07550). To be noted: read-out: B2 binding affinity.

Bounds are passed on as bounds.

Human β2 adrenoceptor, sequence (P07550 whole entry): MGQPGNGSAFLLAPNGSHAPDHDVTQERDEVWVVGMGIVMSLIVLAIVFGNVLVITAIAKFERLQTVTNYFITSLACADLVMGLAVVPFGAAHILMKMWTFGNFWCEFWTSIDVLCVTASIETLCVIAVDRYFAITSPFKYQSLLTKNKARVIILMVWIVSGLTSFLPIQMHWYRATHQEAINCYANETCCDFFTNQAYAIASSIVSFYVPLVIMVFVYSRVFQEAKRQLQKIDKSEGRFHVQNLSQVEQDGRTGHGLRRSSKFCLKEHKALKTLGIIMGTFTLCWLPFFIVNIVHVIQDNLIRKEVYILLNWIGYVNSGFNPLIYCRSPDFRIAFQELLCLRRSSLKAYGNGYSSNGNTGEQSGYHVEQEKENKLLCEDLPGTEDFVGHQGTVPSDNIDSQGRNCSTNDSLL
Human M3 receptor, sequence (P20309 whole entry): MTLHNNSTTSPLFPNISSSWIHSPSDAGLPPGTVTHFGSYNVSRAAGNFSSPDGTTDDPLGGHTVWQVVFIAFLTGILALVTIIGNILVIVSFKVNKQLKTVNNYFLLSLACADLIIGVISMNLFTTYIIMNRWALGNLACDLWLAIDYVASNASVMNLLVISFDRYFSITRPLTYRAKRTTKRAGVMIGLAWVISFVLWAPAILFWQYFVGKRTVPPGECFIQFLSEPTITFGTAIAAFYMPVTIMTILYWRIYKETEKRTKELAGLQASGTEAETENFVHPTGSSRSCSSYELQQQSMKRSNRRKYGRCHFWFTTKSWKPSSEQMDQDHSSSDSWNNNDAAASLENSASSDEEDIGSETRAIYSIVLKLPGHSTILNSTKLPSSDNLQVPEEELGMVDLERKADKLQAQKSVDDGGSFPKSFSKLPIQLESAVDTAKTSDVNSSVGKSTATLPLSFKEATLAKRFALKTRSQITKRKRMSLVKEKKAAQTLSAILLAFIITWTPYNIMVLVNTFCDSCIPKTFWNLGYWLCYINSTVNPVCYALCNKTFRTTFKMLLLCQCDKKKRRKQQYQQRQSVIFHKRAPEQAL

As to `O=C(COc1cccc([C@](O)(C(=O)OCC2CCN(Cc3ccccc3)CC2)c2ccccc2)c1)N1CCC2(CC1)CN(C(=O)c1ccc(CCNC[C@H](O)c3ccc(O)c4[nH]c(=O)ccc34)cc1)C2` [Compound 96, (1-benzylpiperidin-4-yl)methyl (S)-2-hydroxy-2-(3-(2-(2-(4-(2-(((R)-2-hydroxy-2-(8-hydroxy-2-oxo-1,2-dihydroquinolin-5-yl)ethyl)amino)ethyl)benzoyl)-2,7-diazaspiro[3.5]nonan-7-yl)-2-oxoethoxy)phenyl)-2-phenylacetate], the IC50 at Human M3 receptor and on Human β2 adrenoceptor was under 0.3 nM throughout.
Take `O=C(c1ccc(CCNC[C@H](O)c2ccc(O)c3[nH]c(=O)ccc23)cc1)N1CC2(C1)CN(C(=O)c1ccc(COc3cccc([C@](O)(C(=O)OCC4CCN(Cc5ccccc5)CC4)c4ccccc4)c3)cc1)C2` [Compound 116, (1-benzylpiperidin-4-yl)methyl (S)-2-hydroxy-2-(3-((4-(6-(4-(2-(((R)-2-hydroxy-2-(8-hydroxy-2-oxo-1,2-dihydroquinolin-5-yl)ethyl)amino)ethyl)benzoyl)-2,6-diazaspiro[3.3]heptane-2-carbonyl)benzyl)oxy)phenyl)-2-phenylacetate]: the IC50 was 0.3 to 3 nM at Human M3 receptor and under 0.3 nM on Human β2 adrenoceptor.
As to `O=C(COc1cccc([C@](O)(C(=O)OCC2CCN(Cc3ccccc3)CC2)c2ccccc2)c1)N[C@H]1C[C@H](NC(=O)c2ccc(CCNC[C@H](O)c3ccc(O)c4[nH]c(=O)ccc34)cc2)C1` [Compound 88, (1-benzylpiperidin-4-yl)methyl (S)-2-hydroxy-2-(3-(2-(((1R,3S)-3-(4-(2-(((R)-2-hydroxy-2-(8-hydroxy-2-oxo-1,2-dihydroquinolin-5-yl)ethyl)amino)ethyl)benzamido)cyclobutyl)amino)-2-oxoethoxy)phenyl)-2-phenylacetate], the IC50 is under 0.3 nM at Human M3 receptor and 0.3 to 3 nM on Human β2 adrenoceptor.
For `O=C(NCCCOc1cccc([C@](O)(C(=O)OCC2CCN(Cc3ccccc3)CC2)c2ccccc2)c1)c1ccc(CNC[C@H](O)c2ccc(O)c3[nH]c(=O)ccc23)cn1` [Compound 32K, (S)-(1-benzylpiperidin-4-yl)methyl 2-hydroxy-2-(3-(3-(5-((((R)-2-hydroxy-2-(8-hydroxy-2-oxo-1,2-dihydroquinolin-5-yl)ethyl)amino)methyl)picolinamido)propoxy)phenyl)-2-phenylacetate] the same measures were 0.3 to 3 nM and under 0.3 nM.
For `CCc1cccc(C(O)(C(=O)OCC2CCN(Cc3ccccc3)CC2)c2cccc(OCCCCCNC[C@H](O)c3ccc(O)c4[nH]c(=O)ccc34)c2)c1` (stereo partly drawn) [Compound 11, (1-benzylpiperidin-4-yl)methyl 2-(3-ethylphenyl)-2-hydroxy-2-(3-((5-(((R)-2-hydroxy-2-(8-hydroxy-2-oxo-1,2-dihydroquinolin-5-yl)ethyl)amino)pentyl)oxy)phenyl)acetate] the same measures were under 0.3 nM and under 0.3 nM.
Regarding `O=C(N[C@@H]1CCN(C(=O)COc2cccc([C@](O)(C(=O)OCC3CCN(Cc4ccccc4)CC3)c3ccccc3)c2)C1)c1ccc(CCNC[C@H](O)c2ccc(O)c3[nH]c(=O)ccc23)cc1` [Compound 110, (1-benzylpiperidin-4-yl)methyl (S)-2-hydroxy-2-(3-(2-((R)-3-(4-(2-(((R)-2-hydroxy-2-(8-hydroxy-2-oxo-1,2-dihydroquinolin-5-yl)ethyl)amino)ethyl)benzamido)pyrrolidin-1-yl)-2-oxoethoxy)phenyl)-2-phenylacetate], the IC50 on Human M3 receptor and on Human β2 adrenoceptor was 0.3 to 3 nM throughout.
On to `COc1cc(CNC[C@H](O)c2ccc(O)c3[nH]c(=O)ccc23)ccc1C(=O)NCc1ccc(COc2cccc([C@](O)(C(=O)OCC3CCN(Cc4ccccc4)CC3)c3ccccc3)c2)cc1` [Compound 42E, (1-benzylpiperidin-4-yl)methyl (S)-2-hydroxy-2-(3-((4-((4-((((R)-2-hydroxy-2-(8-hydroxy-2-oxo-1,2-dihydroquinolin-5-yl)ethyl)amino)methyl)-2-methoxybenzamido)methyl)benzyl)oxy)phenyl)-2-phenylacetate], for which the IC50 is 0.3 to 3 nM at Human M3 receptor and under 0.3 nM on Human β2 adrenoceptor.
Take `O=C(NCCOc1cccc([C@@](O)(C(=O)OCC2CCN(Cc3ccccc3)CC2)c2ccccc2)c1)c1ccc(CCNC[C@H](O)c2ccc(O)c3[nH]c(=O)ccc23)cc1` [Compound 34, (R)-(1-benzylpiperidin-4-yl)methyl 2-hydroxy-2-(3-(2-(4-(2-(((R)-2-hydroxy-2-(8-hydroxy-2-oxo-1,2-dihydroquinolin-5-yl)ethyl)amino)ethyl)benzamido)ethoxy)phenyl)-2-phenylacetate]: the IC50 was over 3 nM on Human M3 receptor and 0.3 to 3 nM at Human β2 adrenoceptor.
As to `COc1cc(C(=O)N[C@H]2C[C@H](NC(=O)COc3cccc([C@](O)(C(=O)OCC4CCN(Cc5ccccc5)CC4)c4ccccc4)c3)C2)c(F)cc1CNC[C@H](O)c1ccc(O)c2[nH]c(=O)ccc12` [Compound 142, (1-benzylpiperidin-4-yl)methyl (S)-2-(3-(2-(((1R,3S)-3-(2-fluoro-4-((((R)-2-hydroxy-2-(8-hydroxy-2-oxo-1,2-dihydroquinolin-5-yl)ethyl)amino)methyl)-5-methoxybenzamido)cyclobutyl)amino)-2-oxoethoxy)phenyl)-2-hydroxy-2-phenylacetate], the values for the IC50 at Human M3 receptor and at Human β2 adrenoceptor were 0.3 to 3 nM and under 0.3 nM, respectively.
Turning to `O=C(COc1cccc([C@](O)(C(=O)OCC2CCN(Cc3ccccc3)CC2)c2ccccc2)c1)N1CCCC2(CCN(C(=O)c3ccc(CCNC[C@H](O)c4ccc(O)c5[nH]c(=O)ccc45)cc3)CC2)C1` [Compound 99, (1-benzylpiperidin-4-yl)methyl (S)-2-hydroxy-2-(3-(2-(9-(4-(2-(((R)-2-hydroxy-2-(8-hydroxy-2-oxo-1,2-dihydroquinolin-5-yl)ethyl)amino)ethyl)benzoyl)-2,9-diazaspiro[5.5]undecan-2-yl)-2-oxoethoxy)phenyl)-2-phenylacetate], the IC50 on Human M3 receptor and at Human β2 adrenoceptor was 0.3 to 3 nM each time.
Consider `O=C(NCCNC(=O)c1ccc(COc2cccc([C@](O)(C(=O)OCC3CCN(Cc4ccccc4)CC3)c3ccccc3)c2)cc1)c1ccc(CNC[C@H](O)c2ccc(O)c3[nH]c(=O)ccc23)cc1` [Compound 125, (1-benzylpiperidin-4-yl)methyl (S)-2-hydroxy-2-(3-((4-((2-(4-((((R)-2-hydroxy-2-(8-hydroxy-2-oxo-1,2-dihydroquinolin-5-yl)ethyl)amino)methyl)benzamido)ethyl)carbamoyl)benzyl)oxy)phenyl)-2-phenylacetate], for which the IC50 on Human M3 receptor and at Human β2 adrenoceptor was 0.3 to 3 nM throughout.
For `O=C(COc1cccc([C@](O)(C(=O)OCC2CCN(Cc3ccccc3)CC2)c2ccccc2)c1)N[C@H]1C[C@H](NC(=O)Cc2ccc(CNC[C@H](O)c3ccc(O)c4[nH]c(=O)ccc34)cc2)C1` [Compound 146, (1-benzylpiperidin-4-yl)methyl (S)-2-hydroxy-2-(3-(2-(((1R,3S)-3-(2-(4-((((R)-2-hydroxy-2-(8-hydroxy-2-oxo-1,2-dihydroquinolin-5-yl)ethyl)amino)methyl)phenyl)acetamido)cyclobutyl)amino)-2-oxoethoxy)phenyl)-2-phenylacetate], the figures for the IC50 on Human M3 receptor and on Human β2 adrenoceptor were 0.3 to 3 nM and over 3 nM, respectively.
For `O=C(COc1cccc([C@](O)(C(=O)OCC2CCN(Cc3ccccc3)CC2)c2ccccc2)c1)NCC(=O)N1CCC(CNC[C@H](O)c2ccc(O)c3[nH]c(=O)ccc23)CC1` [Compound 150, (1-benzylpiperidin-4-yl)methyl (S)-2-hydroxy-2-(3-(2-((2-(4-((((R)-2-hydroxy-2-(8-hydroxy-2-oxo-1,2-dihydroquinolin-5-yl)ethyl)amino)methyl)piperidin-1-yl)-2-oxoethyl)amino)-2-oxoethoxy)phenyl)-2-phenylacetate] the same measures were under 0.3 nM and under 0.3 nM.
For `O=C(OCC1CCN(Cc2ccccc2)CC1)[C@](O)(c1ccccc1)c1cccc(OCC2CCN(C(=O)[C@H]3CC[C@H](C(=O)N4CCC(CNC[C@H](O)c5ccc(O)c6[nH]c(=O)ccc56)CC4)CC3)CC2)c1` [Compound 157, (1-benzylpiperidin-4-yl)methyl (S)-2-hydroxy-2-(3-((1-((1R,4S)-4-(4-((((R)-2-hydroxy-2-(8-hydroxy-2-oxo-1,2-dihydroquinolin-5-yl)ethyl)amino)methyl)piperidine-1-carbonyl)cyclohexane-1-carbonyl)piperidin-4-yl)methoxy)phenyl)-2-phenylacetate] the same measures were 0.3 to 3 nM and over 3 nM.
For `COc1cc(CNC[C@H](O)c2ccc(O)c3[nH]c(=O)ccc23)ccc1C(=O)NCCCOc1cccc([C@](O)(C(=O)OCC2CCN(Cc3ccccc3)CC2)c2ccccc2)c1` [Compound 32B, (S)-(1-benzylpiperidin-4-yl)methyl 2-hydroxy-2-(3-(3-(4-((((R)-2-hydroxy-2-(8-hydroxy-2-oxo-1,2-dihydroquinolin-5-yl)ethyl)amino)methyl)-2-methoxybenzamido)propoxy)phenyl)-2-phenylacetate] the same measures were under 0.3 nM and under 0.3 nM.
For `COc1cc(C(=O)NCC(=O)N2CCC(COc3cccc([C@](O)(C(=O)OCC4CCN(Cc5ccccc5)CC4)c4ccccc4)c3)CC2)ccc1CNC[C@H](O)c1ccc(O)c2[nH]c(=O)ccc12` [Compound 153, (1-benzylpiperidin-4-yl)methyl (S)-2-hydroxy-2-(3-((1-((4-((((R)-2-hydroxy-2-(8-hydroxy-2-oxo-1,2-dihydroquinolin-5-yl)ethyl)amino)methyl)-3-methoxybenzoyl)glycyl)piperidin-4-yl)methoxy)phenyl)-2-phenylacetate], the IC50 on Human M3 receptor and at Human β2 adrenoceptor was under 0.3 nM each time.
For `O=C(COc1cccc([C@](O)(C(=O)OCC2CCN(Cc3ccccc3)CC2)c2ccccc2)c1)NC1CN(C(=O)c2ccc(CCNC[C@H](O)c3ccc(O)c4[nH]c(=O)ccc34)cc2)C1` [Compound 101, (1-benzylpiperidin-4-yl)methyl (S)-2-hydroxy-2-(3-(2-((1-(4-(2-(((R)-2-hydroxy-2-(8-hydroxy-2-oxo-1,2-dihydroquinolin-5-yl)ethyl)amino)ethyl)benzoyl)azetidin-3-yl)amino)-2-oxoethoxy)phenyl)-2-phenylacetate], the IC50 on Human M3 receptor and at Human β2 adrenoceptor was under 0.3 nM throughout.

(Values after patent publication US9579314B2 (priority 2015, dated 2017).)
